# Structures can show the parent of a compound that is named as a salt. Where two headings read alike, the source gives them in different places.
# Columns and labels:
# [1] = system: human polymorphonuclear leucocytes; assay: Direct /random/ migration of human polymorphonuclear leucocytes on agarose microdrops; assay type: cell-based; details: seven healthy controls, ± S.E.M.
# Procedure: Spontaneous (random) migration of leukocytes was measured on agarose microdrops according to the method of McCoy et al (1977) by carrying out some minor modifications (Kalmar and Gergely, 1982).
# […] agarose drops (0.2%) were placed on migration plates (Greiner, German Federal Republic). TC 199 liquid nutrient medium was added and the plates were air-tightly closed. After 24 hours the migration area were measured under a stereomicroscope. The migration area were expressed in mm^2.
# human lymphocytes [2] = assay: ADCC, 51Cr release from chicken erythrocytes; assay type: cell-based; details: for Cytotoxicity index, ADCC: 5:1, 4 hours, n=10, ± S.E.
# Procedure: (§1) Lymphocytes were separated on Ficoll-Uromiro (Boyum 1968) gradient from the venal blood of healthy donors and patients suffering from malignant lymphoma and metastatizing solid tumours, respectively. When selecting the patients belonging to the latter group, the decreased ADCC and NK activity was taken into consideration. The phagocytes were removed by treatment with iron powder and a magnet.
# ADCC was determined according to the method of Perlmann and Perlmann (1970) with minor modifications (Lang et al, 1981). Chicken erythrocytes labelled with 10^5 51 Cr and coated with anti-chicken erythrocyte rabbit-serum were incubated with the lymphocytes for 4 hours at 37° C. The reaction having been stopped the activity of the supernatant of the centrifuged cells was determined in a gamma-counter. The rate of chrome-release was expressed as the cytotoxicity index (CI %). This value was calculated as described in one of our earlier publications (Lang et al., 1980)--(see Table I).
# Effect on ADDC. Cytotoxicity index /%/.
# Ratio of effector cells; aimed cells = 5:1. Incubation time 4 hours.
# human lymphocytes [3] = assay: NK activity, 51Cr release from K-562 tumor cells; assay type: cell-based; details: for Cytotoxicity index, NK activity: 50:1, 4 hours, ± S.E.
# Procedure: as §1
# NK activity was determined by the method of Jondal and Pross (1975) by using minor modifications (Lang et al, 1981). K-562 tumor cells labelled by ^51 Cr were incubated with effector cells in a TC 199 liquid nutrient medium comprising 10% of decomplemented calf serum. The reaction having been stopped the radioactivity of the superntant of the centrifuged cells (chrome release) was counted in a gamma-counter. The killing of the tumor cells (cytotoxicity index %) was expressed as the difference of the test release and spontaneous release.
# Ratio of effector cells: aimed cells = 50:1.
# Incubation time 4 hours.
# human lymphocytes [4] = assay: Mitogen-induced blastos transformation (PHA, Con A); assay type: cell-based
# Procedure: Lymphocytes were cultivated in a TC 199 liquid nutrient medium completed by 10% decomplemented calf serum, antibiotics and […] HEPES (Serva). 200 μl of a cell suspension comprising 2.10^5 lymphocytes were placed on a microplate (manufacturer: Sterilin Great Britain); five parallels were carried out each.
# 2 and 10 μg/ml, respectively of Phytohaemagglutinine (Leucoagglutinine; manufacturer Pharmacie Sweden) and 25 μg/ml of Concanavalin A (Carbiochem) were added to the cultures; the above values relate to final concentration. The cultures were cultivated at 37° C. for 72 hours. Eight hours before the termination of the end of the cultivating period 0.5 μCi ^3 H thymidine (Chemapol. Czechoslovakia) was added to the samples. Incubation was stopped by freezing the cultures. After melting the samples were filtered on an automatic harvester (Dynatech). The radioactivity of the samples was measured in a scintillation counter. The activity was expressed as c.p.m. (Tables IV and V).
# NK-yl ascites tumor = assay: Combinations with known cytostatic agents in NK-ly ascites tumor; assay type: in vivo, CFLP mice; details: with cyclophosphamide, carnomustine, degranol, dibromo dulcitol or dibromo mannitol
# [5] = system: neutrophylic granulocytes and limphocytes; details: mouse, in vivo, po
# [6] = system: neutrophilic granulocytes, lymphocytes and macrophages; assay: Preliminary rapid test: immunostimulant effect; assay type: in vivo, CFLP male mice; details: oral, one-tenth of LD50; 24 hours
# tumor cells = assay: Testing of antitumor effect (overall)
# [7] = in vivo, 24 h
# NK-ly-ascites lymphoma = NK-ly-ascites lymphoma in vivo; set-up: species or system CFLP male mice
# [8] = Decreased ADCC, 6,7 × 10^-8 mole
# [9] = Decreased ADCC, 6,7 × 10^-9 mole
# [10] = Decreased ADCC, 6,7 × 10^-10 mole
smiles,measurement,setting,value
"C=CCSC(=N)NC(=N)N [Compound A, N-/aminoiminomethyl/-S-allyl-isothiuronium salts (halogenides)]",Migration area,"[1]; 0.1 μg/ml, non significant",10.51 mm^2
same,Migration area,"[1]; 1.0 μg/ml, p < 0.01",12.25 ± 1.58 mm^2
same,Migration area,"[1]; 10.0 μg/ml, p < 0.01",11.24 ± 1.69 mm^2
same,Change of ADCC cytotoxicity index vs control,human lymphocytes [2]; [8],+264%
same,"Cytotoxicity index, ADCC",human lymphocytes [2]; [8],10.2 ± 2.7%
same,Change of ADCC cytotoxicity index vs control,human lymphocytes [2]; [9],+175%
same,"Cytotoxicity index, ADCC",human lymphocytes [2]; [9],7.7 ± 1.9%
same,Change of ADCC cytotoxicity index vs control,human lymphocytes [2]; [10],+126%
same,"Cytotoxicity index, ADCC",human lymphocytes [2]; [10],6.35 ± 1.7%
same,Change of ADCC cytotoxicity index vs control,"human lymphocytes [2]; Normal ADCC, 6,7 × 10^-8 mole",+62%
same,"Cytotoxicity index, ADCC","human lymphocytes [2]; Normal ADCC, 6,7 × 10^-8 mole",68.2 ± 5.3%
same,Change of ADCC cytotoxicity index vs control,"human lymphocytes [2]; Normal ADCC, 6,7 × 10^-9 mole",+52%
same,"Cytotoxicity index, ADCC","human lymphocytes [2]; Normal ADCC, 6,7 × 10^-9 mole",64 ± 5.8%
same,Change of ADCC cytotoxicity index vs control,"human lymphocytes [2]; Normal ADCC, 6,7 × 10^-10 mole",+39%
same,"Cytotoxicity index, ADCC","human lymphocytes [2]; Normal ADCC, 6,7 × 10^-10 mole",58.5 ± 5.2%
same,Change of NK cytotoxicity index vs control,"human lymphocytes [3]; Decreased NK, 6.7 × 10^-9 mole/ml",+68%
same,"Cytotoxicity index, NK activity","human lymphocytes [3]; Decreased NK, 6.7 × 10^-9 mole/ml, n=7",25.3 ± 3.2%
same,Change of NK cytotoxicity index vs control,"human lymphocytes [3]; Decreased NK, 6.7 × 10^-10 mole/ml",+43%
same,"Cytotoxicity index, NK activity","human lymphocytes [3]; Decreased NK, 6.7 × 10^-10 mole/ml, n=7",21.6 ± 3.0%
same,Change of NK cytotoxicity index vs control,"human lymphocytes [3]; Decreased NK, third dose column (printed 6.7 × 10^-31 8)",+113%
same,"Cytotoxicity index, NK activity","human lymphocytes [3]; Decreased NK, third dose column (printed 6.7 × 10^-31 8) mole/ml, n=7",32.2 ± 3.2%
same,Change of NK cytotoxicity index vs control,"human lymphocytes [3]; Normal NK, 6.7 × 10^-9 mole/ml",+32%
same,"Cytotoxicity index, NK activity","human lymphocytes [3]; Normal NK, 6.7 × 10^-9 mole/ml, n=8",43.4 ± 2.7%
same,Change of NK cytotoxicity index vs control,"human lymphocytes [3]; Normal NK, 6.7 × 10^-10 mole/ml",+25%
same,"Cytotoxicity index, NK activity","human lymphocytes [3]; Normal NK, 6.7 × 10^-10 mole/ml, n=8",41 ± 2.9%
same,Change of NK cytotoxicity index vs control,"human lymphocytes [3]; Normal NK, third dose column (printed 6.7 × 10^-31 8)",+45%
same,"Cytotoxicity index, NK activity","human lymphocytes [3]; Normal NK, third dose column (printed 6.7 × 10^-31 8) mole/ml, n=8",47.6 ± 1.4%
same,"Blastos transformation, average c.p.m.","human lymphocytes [4]; healthy controls n=6, Con A 25 μg/ml, dose 0.1 μg/ml",10564 c.p.m.
same,"Blastos transformation, average c.p.m.","human lymphocytes [4]; healthy controls n=6, Con A 25 μg/ml, dose 1.0 μg/ml",14089 c.p.m.
same,"Blastos transformation, average c.p.m.","human lymphocytes [4]; healthy controls n=6, Con A 25 μg/ml, dose 10.0 μg/ml",17038 c.p.m.
same,"Blastos transformation, average c.p.m.","human lymphocytes [4]; healthy controls n=6, PHA 2 μg/ml, dose 0.1 μg/ml",22233 c.p.m.
same,"Blastos transformation, average c.p.m.","human lymphocytes [4]; healthy controls n=6, PHA 2 μg/ml, dose 1.0 μg/ml",23156 c.p.m.
same,"Blastos transformation, average c.p.m.","human lymphocytes [4]; healthy controls n=6, PHA 2 μg/ml, dose 10.0 μg/ml",25404 c.p.m.
same,"Blastos transformation, average c.p.m.","human lymphocytes [4]; healthy controls n=6, PHA 10 μg/ml, dose 0.1 μg/ml",29969 c.p.m.
same,"Blastos transformation, average c.p.m.","human lymphocytes [4]; healthy controls n=6, PHA 10 μg/ml, dose 1.0 μg/ml",33826 c.p.m.
same,"Blastos transformation, average c.p.m.","human lymphocytes [4]; healthy controls n=6, PHA 10 μg/ml, dose 10.0 μg/ml",33790 c.p.m.
same,"Blastos transformation, average c.p.m.","human lymphocytes [4]; patients of decreased reactivity /tumor and SLE/ n=6, Con A 25 μg/ml, dose 0.1 μg/ml",1097 c.p.m.
same,"Blastos transformation, average c.p.m.","human lymphocytes [4]; patients of decreased reactivity /tumor and SLE/ n=6, Con A 25 μg/ml, dose 1.0 μg/ml",935 c.p.m.
same,"Blastos transformation, average c.p.m.","human lymphocytes [4]; patients of decreased reactivity /tumor and SLE/ n=6, Con A 25 μg/ml, dose 10.0 μg/ml",1023 ± 361 c.p.m.
same,"Blastos transformation, average c.p.m.","human lymphocytes [4]; patients of decreased reactivity /tumor and SLE/ n=6, PHA 2 μg/ml, dose 0.1 μg/ml",2877 c.p.m.
same,"Blastos transformation, average c.p.m.","human lymphocytes [4]; patients of decreased reactivity /tumor and SLE/ n=6, PHA 2 μg/ml, dose 1.0 μg/ml",4344 c.p.m.
same,"Blastos transformation, average c.p.m.","human lymphocytes [4]; patients of decreased reactivity /tumor and SLE/ n=6, PHA 2 μg/ml, dose 10.0 μg/ml",4716 ± 1287 c.p.m.
same,"Blastos transformation, average c.p.m.","human lymphocytes [4]; patients of decreased reactivity /tumor and SLE/ n=6, PHA 10 μg/ml, dose 0.1 μg/ml",5802 c.p.m.
same,"Blastos transformation, average c.p.m.","human lymphocytes [4]; patients of decreased reactivity /tumor and SLE/ n=6, PHA 10 μg/ml, dose 1.0 μg/ml",6323 c.p.m.
same,"Blastos transformation, average c.p.m.","human lymphocytes [4]; patients of decreased reactivity /tumor and SLE/ n=6, PHA 10 μg/ml, dose 10.0 μg/ml",6968 ± 1669 c.p.m.
"N=C(N)NC(=N)SCCCCl [Example 15, N-Aminoiminomethyl-S-(3-Chloropropyl)-Isothiuronium Bromide]",Antitumor effect of combination vs cytostatic agent alone,NK-yl ascites tumor,the antitumor effect was strengthened
same,Immunodepression of combination vs cytostatic agent alone,NK-yl ascites tumor,immunodepression decreased
same,Toxic effect,[5],0
same,Immunostimulant effect,[6],weak
same,Antitumor effect,tumor cells,outstanding antitumor effect
same,LD50 at 24 h,in vivo; po,1210 ± 180 mg/kg
"C=CCSC(=NC1CCCCC1)NC(=N)N [Example 22, N-Aminoiminomethyl-N'-Cyclohexyl-S-Allyl-Isothiuronium Chloride]",Toxic effect,[5],0
same,LD50,[7]; ip,40 ± 6 mg/kg
same,LD50,[7]; po,400 ± 38 mg/kg
same,Immunostimulant effect,[6],weak
same,Activity against NK-ly-ascites tumor,NK-ly-ascites lymphoma; concentration below one-tenth of the LD50 value,active agains Nk-ly-ascites tumor in a concentration below one-tenth of the LD50 value
same,Survival rate and lifetime,NK-ly-ascites lymphoma; dose-dependant,increase survival rate and lifetime in a dose-dependant manner
same,Cytotoxical dose range,"NK-ly-ascites lymphoma; mouse, in vivo",40 to 160 mg/kg
same,LD50 at 24 h,in vivo; ip,65 ± 5.1 mg/kg
same,LD50 at 24 h,in vivo; po,450 ± 51 mg/kg
"N=C(N)NC(=N)SCCCBr [Example 28, N-aminoiminomethyl-S-(3-bromo-propyl)-isothiuronium bromide]",Antitumor effect of combination vs cytostatic agent alone,NK-yl ascites tumor,the antitumor effect was strengthened
same,Immunodepression of combination vs cytostatic agent alone,NK-yl ascites tumor,immunodepression decreased
same,Toxic effect,[5],0
same,Immunostimulant effect,[6],weak
same,Antitumor effect,tumor cells,outstanding antitumor effect
same,LD50 at 24 h,in vivo; po,980 ± 640 mg/kg
"C=CCSC(=NCC)NC(=N)N [Example 34, N-aminoiminomethyl-N'-ethyl-S-allyl-isothiuronium chloride]",Toxic effect,[5],0
same,Immunostimulant effect,[6],medium (Medium effect is observed if the increase of cell number or activity over the control amounts to 20%)
same,Antitumor effect,tumor cells,outstanding antitumor effect
same,LD50 at 24 h,in vivo; ip,84 ± 7.6 mg/kg
same,LD50 at 24 h,in vivo; po,780 ± 62 mg/kg
"CC(C)N=C(NC(=N)N)SCCCCl [Example 35, N-aminoiminomethyl-N'-isopropyl-S-(3-chloropropyl)-isothiuronium bromide]",Antitumor effect,tumor cells,outstanding antitumor effect
"C=C(C)CSC(=NC(C)C)NC(=N)N [Example 36, N-aminoiminomethyl-N'-isopropyl-S-methallyl-isothiuronium chloride]",Antitumor effect,tumor cells,outstanding antitumor effect
"C=C(C)CSC(=NC1CCCCC1)NC(=N)N [Example 38, N-aminoiminomethyl-N'-cyclohexyl-S-methallyl-isothiuronium chloride]",Antitumor effect,tumor cells,outstanding antitumor effect

# Source: patent publication US4710578A, “Isothiuronium salts” (Peremartoni Vegyipari Vallalat, priority 1984, dated 1987)
